Data taken from ChEMBL document CHEMBL1201862, “PubChem BioAssay data set” (2004).
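Dose response: 5 concentrations. Exposure: 48 h. Format: 96-well plates. Endpoint: linear interpolation; highest concentration if not reached. At the GI50, growth is halved.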 The source made the active and inactive calls. Rule as the data show it: active = GI50 up to about 1.1 µM and inactive = higher.

Key:
Test in all cases: NCI tumour cell line growth inhibition, 48 h
[1] = test system: K562
[2] = test system: RPMI-8226
[3] = test system: HOP-92
[4] = test system: OVCAR-5
[5] = test system: SN12C
[6] = test system: NCI-H23
[7] = test system: 786-0
[8] = test system: LXFL 529
[9] = test system: EKVX
[10] = test system: KM-20L2
[11] = test system: TK-10
[12] = test system: NCI-H226
[13] = test system: UACC-62
[14] = test system: DMS-114
[15] = test system: U-251
[16] = test system: RXF 631
[17] = test system: OVCAR-3
[18] = test system: A498
[19] = test system: SK-OV-3
[20] = test system: NCI-H460
[21] = test system: LOX IMVI
[22] = test system: HOP-18
[23] = test system: DMS-273
[24] = test system: Malme-3M
[25] = test system: ACHN
[26] = test system: M14
[27] = test system: MOLT-4
[28] = test system: A549
[29] = test system: UO-31
[30] = test system: SF-295
[31] = test system: UACC-257
[32] = test system: HCC 2998
[33] = test system: SK-MEL-5
[34] = test system: XF498
[35] = test system: SF-539
[36] = test system: SNB-19
[37] = test system: SW-620
[38] = test system: NCI-H522
[39] = test system: SNB-75
[40] = test system: SR
[41] = test system: SK-MEL-2
[42] = test system: SF-268
[43] = test system: HOP-62
[44] = test system: HT-29
[45] = test system: CCRF-CEM
[46] = test system: OVCAR-4
[47] = test system: OVCAR-8
[48] = test system: KM12
[49] = test system: SK-MEL-28
[50] = test system: HCT-116
[51] = test system: HL-60
[52] = test system: M19-MEL
[53] = test system: IGROV-1
[54] = test system: COLO 205
[55] = test system: CAKI-1
[56] = test system: HCT-15

SMILES: COc1cc2ccnc(-c3n[nH]c4cc(OC)c(OC)cc34)c2cc1OC
- GI50 [1]: > 100 µM (inactive)
- GI50 [2]: > 100 µM (inactive)
- GI50 [3]: > 100 µM (inactive)
- GI50 [4]: > 100 µM (inactive)
- GI50 [5]: > 100 µM (inactive)
- GI50 [6]: > 100 µM (inactive)
- GI50 [7]: > 100 µM (inactive)
- GI50 [8]: > 100 µM (inactive)
- GI50 [9]: > 100 µM (inactive)
- GI50 [10]: > 100 µM (inactive)
- GI50 [11]: > 100 µM (inactive)
- GI50 [12]: > 100 µM (inactive)
- GI50 [13]: > 100 µM (inactive)
- GI50 [14]: > 100 µM (inactive)
- GI50 [15]: > 100 µM (inactive)
- GI50 [16]: 33 µM (inactive)
- GI50 [17]: > 100 µM (inactive)
- GI50 [18]: > 100 µM (inactive)
- GI50 [19]: > 100 µM (inactive)
- GI50 [20]: > 100 µM (inactive)
- GI50 [21]: > 100 µM (inactive)
- GI50 [22]: > 100 µM (inactive)
- GI50 [23]: > 100 µM (inactive)
- GI50 [24]: > 100 µM (inactive)
- GI50 [25]: > 100 µM (inactive)
- GI50 [26]: > 100 µM (inactive)
- GI50 [27]: > 100 µM (inactive)
- GI50 [28]: > 100 µM (inactive)
- GI50 [29]: > 100 µM (inactive)
- GI50 [30]: > 100 µM (inactive)
- GI50 [31]: > 100 µM (inactive)
- GI50 [32]: > 100 µM (inactive)
- GI50 [33]: > 100 µM (inactive)
- GI50 [34]: > 100 µM (inactive)
- GI50 [35]: > 100 µM (inactive)
- GI50 [36]: > 100 µM (inactive)
- GI50 [37]: > 100 µM (inactive)
- GI50 [38]: 22 µM (inactive)
- GI50 [39]: > 100 µM (inactive)
- GI50 [40]: > 100 µM (inactive)
- GI50 [41]: > 100 µM (inactive)
- GI50 [42]: 62.4 µM (inactive)
- GI50 [43]: > 100 µM (inactive)
- GI50 [44]: > 100 µM (inactive)
- GI50 [45]: > 100 µM (inactive)
- GI50 [46]: > 100 µM (inactive)
- GI50 [47]: > 100 µM (inactive)
- GI50 [48]: > 100 µM (inactive)
- GI50 [49]: > 100 µM (inactive)
- GI50 [50]: > 100 µM (inactive)
- GI50 [51]: > 100 µM (inactive)
- GI50 [52]: > 100 µM (inactive)
- GI50 [53]: > 100 µM (inactive)
- GI50 [54]: > 100 µM (inactive)
- GI50 [55]: > 100 µM (inactive)
- GI50 [56]: > 100 µM
